In patent US20250382279A1, “COMPOUNDS AND METHODS FOR YAP/TEAD MODULATION AND INDICATIONS THEREFOR” (OPNA BIO SA, priority 2023, published 2025):

Each compound was assayed on TEAD-dependent transcription (assay: Inhibitor activity against TEAD-dependent transcription in a cell-based reporter assay (MSTO-211H+12XGTIIC luciferase)). Details: Homo sapiens; MSTO-211H+12XGTIIC cell line, 24 hours compound incubation, luminescence normalized to cell viability fluorescence; read-out: MSTO-211H GMean IC50 (uM) Cell Assay Reporter Cell Variant: TEAD.
Description: Determine Inhibitor Activity Against TEAD-Dependent Transcription in a Cell-Based Reporter Assay
The human mesothelioma cell line MSTO-211H was stably transfected with a pGL4.21 plasmid containing a synthetic promoter with 12 copies of the GTIIC TEAD response element that drives the expression of a luciferase reporter gene^1 using Lipofectamine transfection reagent (Thermno Fisher). Transfected cells were selected using puromycin and single cell clones expressing this construct (referred to as MSTO-211H+12XGTIIC) were generated by limiting dilution. MSTO-211H cells was characterized by genetic alterations in key components of the Hippo pathway^2, resulting in up-regulation of YAP/TEAD-mediated transcription. […] To evaluate TEAD inhibitors, the MSTO-211H+12XGTIIC cell line was seeded in a 96-well plate in 50 μL of culture media at 1×10^4 cells per well and incubated at 37° C. overnight. Serial dilutions of compounds (in total volume of 50 μL of culture media) were added to the cells and incubated at 37° C. for 24 hours. Each plate included cells treated with DMSO as high controls and cells treated with 20 μM of the reference compound K-975 (a known TEAD inhibitor)^3 as low controls. Cell viability was assayed by the addition of 25 μL of CellTiter-Fluor reagent (Promega) followed by a 30-minute incubation at 37° C. and quantification of the fluorescence signal (Ex400/Em505). Subsequently, luciferase expression was assayed by the addition of 25 μL of ONE-Glo reagent (Promega) followed by a 10-minute incubation at room temperature and quantification of the luminescence signal. The luminescence signal was normalized to the fluorescence signal to correct for any loss in cell viability over the 24-hour compound incubation period. The percentage of inhibition of normalized luminescence signal, indicative of compound-mediated inhibition of TEAD-dependent transcription, at individual compound concentrations relative to high and low controls was calculated. The data were analyzed by using nonlinear regression to generate IC50 values for individual compounds.

Compound	IC50 [µM]
O=C1c2cccc(Oc3ccc(C(F)(F)F)cc3)c2CCN1c1ccnc(S(=O)(=O)C(F)(F)F)n1 [O-0019, 5-(4-(trifluoromethyl)phenoxy)-2-(2-((trifluoromethyl)sulfonyl)pyrimidin-4-yl)-3,4-dihydroisoquinolin-1(2H)-one]	0.001 to 10
O=C1c2cccc(Oc3ccc(C(F)(F)F)cc3)c2CCN1C1CCN(S(=O)(=O)C(F)(F)F)CC1 [O-0020, 5-(4-(trifluoromethyl)phenoxy)-2-(1-((trifluoromethyl)sulfonyl)piperidin-4-yl)-3,4-dihydroisoquinolin-1(2H)-one]	0.001 to 10
CS(=O)(=O)N1CCCC(N2CCc3c(Oc4ccc(C(F)(F)F)cc4)cccc3C2=O)C1 (stereo not drawn) [O-0022, 2-(1-(methylsulfonyl)piperidin-3-yl)-5-(4-(trifluoromethyl)phenoxy)-3,4-dihydroisoquinolin-1(2H)-one]	0.001 to 10
CS(=O)(=O)N1CCC(N2CCc3c(Oc4ccc(C(F)(F)F)cc4)cccc3C2=O)C1 (stereo not drawn) [O-0027, 2-(1-(methylsulfonyl)pyrrolidin-3-yl)-5-(4-(trifluoromethyl)phenoxy)-3,4-dihydroisoquinolin-1(2H)-one]	0.001 to 10
CS(=O)(=O)c1cccc(N2CCc3ccc(Oc4ccc(C(F)(F)F)cc4)cc3C2=O)n1 [O-0031, 2-(6-(methylsulfonyl)pyridin-2-yl)-7-(4-(trifluoromethyl)phenoxy)-3,4-dihydroisoquinolin-1(2H)-one]	0.001 to 10
O=C1c2cc(Oc3ccc(C(F)(F)F)cc3)ccc2CCN1c1cccc(S(=O)(=O)C(F)(F)F)n1 [O-0032, 7-(4-(trifluoromethyl)phenoxy)-2-(6-((trifluoromethyl)sulfonyl)pyridin-2-yl)-3,4-dihydroisoquinolin-1(2H)-one]	0.001 to 10
CS(=O)(=O)c1ccnc(N2CCc3ccc(Oc4ccc(C(F)(F)F)cc4)cc3C2=O)c1 [O-0033, 2-(4-(methylsulfonyl)pyridin-2-yl)-7-(4-(trifluoromethyl)phenoxy)-3,4-dihydroisoquinolin-1(2H)-one]	0.001 to 10
O=C1c2cc(Oc3ccc(C(F)(F)F)cc3)ccc2CCN1c1cccc(S(=O)(=O)C(F)(F)F)c1 [O-0035, 7-(4-(trifluoromethyl)phenoxy)-2-(3-((trifluoromethyl)sulfonyl)phenyl)-3,4-dihydroisoquinolin-1(2H)-one]	0.001 to 10
CS(=O)(=O)c1nccc(N2CCc3ccc(Oc4ccc(C(F)(F)F)cc4)cc3C2=O)n1 [O-0036, 2-(2-(methylsulfonyl)pyrimidin-4-yl)-7-(4-(trifluoromethyl)phenoxy)-3,4-dihydroisoquinolin-1(2H)-one]	0.001 to 10
O=C1c2cc(Oc3ccc(C(F)(F)F)cc3)ccc2CCN1c1cccc(-c2nccs2)c1 [O-0038, 2-(3-(thiazol-2-yl)phenyl)-7-(4-(trifluoromethyl)phenoxy)-3,4-dihydroisoquinolin-1(2H)-one]	0.001 to 10
O=C1c2cc(Oc3ccc(C(F)(F)F)cc3)ccc2CCN1c1cccc(-c2cscn2)c1 [O-0039, 2-(3-(thiazol-4-yl)phenyl)-7-(4-(trifluoromethyl)phenoxy)-3,4-dihydroisoquinolin-1(2H)-one]	0.001 to 10
O=C1c2cc(Oc3ccc(C(F)(F)F)cc3)ccc2CCN1c1ccnc(S(=O)(=O)C(F)(F)F)n1 [O-0044, 7-(4-(trifluoromethyl)phenoxy)-2-(2-((trifluoromethyl)sulfonyl)pyrimidin-4-yl)-3,4-dihydroisoquinolin-1(2H)-one]	0.001 to 10
O=C1c2cc(Oc3ccc(C(F)(F)F)cc3)ccc2CCN1c1ccc2nc(C(F)(F)F)[nH]c2c1 [O-0045, 2-(2-(trifluoromethyl)-1H-benzo[d]imidazol-6-yl)-7-(4-(trifluoromethyl)phenoxy)-3,4-dihydroisoquinolin-1(2H)-one]	0.001 to 10
O=C1c2cc(Oc3ccc(C(F)(F)F)cc3)ccc2CCN1c1ccc2nc(C(F)(F)F)sc2c1 [O-0046, 2-(2-(trifluoromethyl)benzo[d]thiazol-6-yl)-7-(4-(trifluoromethyl)phenoxy)-3,4-dihydroisoquinolin-1(2H)-one]	0.001 to 10
C=CC(=O)Nc1cncc(N2CCc3ccc(Oc4ccc(C(F)(F)F)cc4)cc3C2=O)c1 [O-0108, N-(5-(1-oxo-7-(4-(trifluoromethyl)phenoxy)-3,4-dihydroisoquinolin-2(1H)-yl)pyridin-3-yl)acrylamide]	0.001 to 10
Nc1cncc(N2CCc3ccc(Oc4ccc(C(F)(F)F)cc4)cc3C2=O)c1 [O-0110, 2-(5-aminopyridin-3-yl)-7-(4-(trifluoromethyl)phenoxy)-3,4-dihydroisoquinolin-1(2H)-one]	0.001 to 10
Nc1cccc(N2CCc3ccc(Oc4ccc(C(F)(F)F)cc4)cc3C2=O)n1 [O-0111, 2-(6-aminopyridin-2-yl)-7-(4-(trifluoromethyl)phenoxy)-3,4-dihydroisoquinolin-1(2H)-one]	0.001 to 10
O=C1c2cccc(Oc3ccc(C(F)(F)F)cc3)c2CCN1c1ccnc([S+]([O-])C(F)(F)F)n1 (stereo not drawn) [O-0112, 5-(4-(trifluoromethyl)phenoxy)-2-(2-((trifluoromethyl)sulfinyl)pyrimidin-4-yl)-3,4-dihydroisoquinolin-1(2H)-one]	0.001 to 10
